According to patent US11091815B2, “Integrated methods for treating lignocellulosic material” (VIRDIA, LLC, priority 2015, dated 2021):
Where two headings read alike, the source gives them in different places.

Test: Partition coefficient in a two phase system of water and MEK
Assay type: physicochemical
Experimental: Water and methylethyl ketone (MEK) were shaken for several minutes to allow saturation of each phase. The phases were separated. An excess amount of fumaric acid was stirred at 40° C. in each phase for 5 hours in a closed container. A sample of the solution was diluted with water and filtered. The concentration of fumaric acid was determined by HPLC by injecting 1-20 μL onto a Bio-Rad Aminex HPX-87H 7.2 mm column, using 0.003 M H2SO4 as eluent, flow rate 0.6 mL/min, temperature 65° C., and an RI detector. The saturated solution was held in a thermostated bath at 25° C., 10° C., 4° C. and 0° C. and allowed to equilibrate at each temperature. A sample of each solution was taken, diluted with water and injected onto the HPLC to determine fumaric acid concentration. Similarly, excess amounts of fumaric acid and Ca(OH)2 were shaken with each phase and the concentration of fumaric acid determined by HPLC in a diluted, filtered sample.
An excess amount of fumaric acid was shaken overnight at 4° C. in a biphasic system of water and MEK. The fumaric acid concentration in each phase was determined by HPLC as described in Example 4. Similarly, excess amounts of both fumaric acid and calcium hydroxide were equilibrated with a biphasic system of water and MEK. The partition coefficient was calculated as:
[formula] K was determined to be 8.6 for fumaric acid and 0.5 for calcium fumarate.

| Structure (SMILES) | partition coefficient K (biphasic system of water and MEK, excess solid shaken overnight at 4° C., concentration in each phase by HPLC, calcium fumarate: excess fumaric acid and calcium hydroxide) | partition coefficient K |
| --- | --- | --- |
| O=C([O-])/C=C/C(=O)[O-].[Ca+2] [calcium fumarate] | 0.5 | – |
| O=C(O)/C=C/C(=O)O [fumaric acid] | – | 8.6 |
